In PMC11231141, “Ube3a unsilencer for the potential treatment of Angelman syndrome” (Nature Communications, 2024):

Legend:
paternal UBE3A-YFP = paternal UBE3A-YFP unsilencing, high-content imaging in mouse primary neurons (Ube3a m+/pYFP); assay type: cell-based; conditions: for Emax / EC50: Mus musculus, 72 h, mean ± SEM; for Emax: Neuron, highest concentration with at least 90% neurons alive, read-out: EMAX (% patUBE3A-YFP+); for EC50: Primary neuron, n = 3; for capability to unsilence paternal Ube3a (analog test): mouse primary neurons, up to 5 μM
Protocol: We aimed to identify novel unsilencers of paternal Ube3a by employing a previously developed high-content small molecule screen. This screen was performed in primary neurons derived from knock-in mice harboring a yellow fluorescent protein (YFP) fused to the paternal allele of Ube3a[25], allowing for fluorescence-based identification of the paternal allele-specific expression of UBE3A-YFP (detected by a GFP antibody enhancement) (Fig. 1a and Supplementary Table 1). We screened >2800 compounds from a Pfizer chemogenetic library, which contains small molecules selected to cover a broad spectrum of pharmacological space. We screened small molecules at 1 μM concentration and used 0.3 μM topotecan, a topoisomerase inhibitor that can downregulate the Ube3a-ATS and unsilence the paternal Ube3a, as a positive control (Fig. 1b)[10]. Small molecules that increase the UBE3A-YFP signal represent putative paternal Ube3a unsilencers.
(§1) Immunofluorescence for high-content imaging analysis was performed as previously described with slight modifications. Following drug treatment at DIV7, primary neurons were fixed at DIV10 with 4% paraformaldehyde in PBS at room temperature (RT) for 10 min. After three brief washes in PBS, neurons were permeabilized with PBS/1% Triton-X-100 at RT for 10 min, followed by blocking with PBS including 5% normal goat serum and 0.2% Triton-X-100 (NGST) at RT. […] All acquired images were analyzed by CellProfiler[48]. The mean GFP signal from each drug-treated well was normalized to the average mean GFP signal from DMSO-treated neurons. […] Fluorescent images were acquired using a Nikon Ti2 eclipse fluorescence microscope (Nikon Instruments Inc.) and analyzed using Nikon NIS-Elements software (Nikon Instruments Inc.). Antibody-enhanced UBE3A-YFP fluorescence intensities were determined from DAPI and NeuN double-positive neurons in drug-treated wells and normalized to neurons in DMSO-treated wells. The cytotoxicity of a compound was determined by calculating the percentage of neurons (DAPI and NeuN double-positive cells) alive in drug-treated wells compared to the DMSO-treated wells. For determining the effectiveness of unsilencing, the percent neurons expressing GFP signal in neurons (DAPI and NeuN double-positive cells) in drug-treated wells was thresholded such that the percent GFP positive neurons in DMSO-treated wells was set to ~5%. Concentrations where more than 10% of neurons were dead compared to DMSO-treated wells were manually removed and the last included data point was set as a maximum efficacy. Sigmoidal curve fitting for the dose-response analysis was performed using GraphPad Prism software version 8.0 (GraphPad Software).

[1] = cytotoxicity (% viable DAPI/NeuN neurons vs DMSO) in mouse primary neurons; assay type: cell-based; conditions: primary cortical neurons from E15.5 mouse embryos, mean ± SEM, n = 3
Protocol: as §1

Ube3a-ATS = test: quantitative RT-PCR of Ube3a-ATS in Ube3a m-/p+ primary neurons; assay type: cell-based, mouse; conditions: 72 h at DIV7, 0.3 µM topotecan, 1 µM (S)- or (R)-PHA533533, 0.1 µM 2, 0.1 µM 3, 0.3 µM (±)-4, 5 µM (S,R)-5
Protocol: Next, 1 ml of Neurobasal Plus medium (A3582901, ThermoFisher) containing 5% FBS (TMS-013-B; MilliporeSigma) was added to the cortical mixture to deactivate the papain and subsequently triturated. […] Isolated cortical neurons were plated onto poly-D-lysine coated 384-well plates at 2 × 10^4 cell/well for screening and dose-response assays, or 6-well plates at 1 × 10^6 cell/well for molecular and biochemical assays (western blot, ASO-dependent knock-down, and quantitative RT-PCR).

TOP1 = target: T1, TOP1 (Homo sapiens, UniProt P11387); test: TOP1-mediated DNA relaxation assay; assay type: biochemical; conditions: 3 μM topotecan; increasing concentrations of (S)- and (R)-PHA533533; vs DMSO
T1 construct: purchased TopoGEN
T1 sequence (P11387 1-765): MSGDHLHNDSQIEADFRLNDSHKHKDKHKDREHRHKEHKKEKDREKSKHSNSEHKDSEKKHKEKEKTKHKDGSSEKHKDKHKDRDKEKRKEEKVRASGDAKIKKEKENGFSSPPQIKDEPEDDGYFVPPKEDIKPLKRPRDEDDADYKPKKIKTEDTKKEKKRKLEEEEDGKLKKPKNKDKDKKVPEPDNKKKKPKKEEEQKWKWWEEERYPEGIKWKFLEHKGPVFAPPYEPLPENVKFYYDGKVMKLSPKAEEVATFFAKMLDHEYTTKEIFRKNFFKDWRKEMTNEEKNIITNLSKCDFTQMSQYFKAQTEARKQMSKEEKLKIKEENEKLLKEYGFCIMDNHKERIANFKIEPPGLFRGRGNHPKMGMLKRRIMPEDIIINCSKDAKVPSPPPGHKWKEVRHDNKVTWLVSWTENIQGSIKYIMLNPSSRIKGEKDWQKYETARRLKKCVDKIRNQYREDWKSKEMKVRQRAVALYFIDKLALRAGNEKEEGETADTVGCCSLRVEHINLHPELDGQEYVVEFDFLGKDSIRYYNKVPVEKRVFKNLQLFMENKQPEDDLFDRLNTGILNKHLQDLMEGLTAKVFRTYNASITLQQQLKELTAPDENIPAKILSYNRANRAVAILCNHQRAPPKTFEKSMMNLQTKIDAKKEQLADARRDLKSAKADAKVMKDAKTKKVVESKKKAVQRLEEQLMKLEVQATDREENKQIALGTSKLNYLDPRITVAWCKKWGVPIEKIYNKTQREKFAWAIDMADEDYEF
From the text: […]. […] […]. […] […]. […] […].
The Pfizer chemogenetic library and PHA533533 derivatives were provided by the Compound Transfer Program (CTP) at Pfizer. Topotecan hydrochloride salt was purchased from Cayman Chemicals (Item No. 14129). […] […]. The Human Topoisomerase I Assay Kit was purchased from TopoGEN and performed according to the manufacturer’s protocols.

UBE3A protein = test: western blot of UBE3A protein in Ube3a m-/p+ primary neurons; assay type: cell-based, mouse; conditions: 72 h at DIV7, 0.3 µM topotecan, 1 µM (S)-PHA533533, 0.1 µM 3, 0.3 µM (±)-4
Protocol: 2’ MOE gapmer antisense oligonucleotides (ASOs) designed to target mouse Cdk2 sequence […], Cdk5 sequence […], Top1 sequence […], and scrambled […] sequence as a negative control (Integrated DNA Technologies) were formulated in water and added to cultured cortical neurons grown on 6-well plates at DIV5 at a final concentration of 10 μM. Neurons were further cultured and treated at DIV7 with vehicle (0.1% DMSO) or the indicated compounds for 72 h. For western blot analysis, neurons were washed once with PBS and then lysed using RIPA buffer (50 mM Tris-HCl pH 8.0, 150 mM NaCl, 1% NP−40, 0.5% Na-deoxycholate, 0.5% SDS) and protease inhibitor cocktail (P8340, MilliporeSigma) on ice.

O=C(Cc1ccc2ccccc2c1)Nc1cc(C2CC2)[nH]n1 [Compound 2]
Emax (paternal UBE3A-YFP): 71.4 ± 7.34% | EC50 (paternal UBE3A-YFP): 140 ± 20 nM | capability to unsilence paternal Ube3a (analog test) (paternal UBE3A-YFP): could unsilence paternal Ube3a | CC50 at 72 h [1]: 570 ± 90 nM | relative quantity of Ube3a-ATS vs DMSO (Ube3a-ATS): downregulated | relative quantity of Ube3a-ATS vs DMSO (Ube3a-ATS; listed as compound 2): did not reach statistical significance

C[C@@H](C(=O)Nc1cc(C2CC2)[nH]n1)c1ccc(N2CCCC2=O)cc1 [(R)-PHA533533]
paternal UBE3A-YFP immunofluorescent signal (paternal UBE3A-YFP): minimal UBE3A-YFP immunofluorescent signal | inhibition of TOP1 catalytic activity to relax supercoiled DNA (TOP1): had no effect on the TOP1 activity

O=C(Cc1ccc(-c2ccccc2)cc1)Nc1cc(C2CC2)[nH]n1 [Compound 3]
Emax (paternal UBE3A-YFP): 43.5 ± 8.24% | EC50 (paternal UBE3A-YFP): 100 ± 10 nM | capability to unsilence paternal Ube3a (analog test) (paternal UBE3A-YFP): could unsilence paternal Ube3a | UBE3A protein levels vs DMSO (UBE3A protein): significantly increased | CC50 at 72 h [1]: 300 ± 30 nM | relative quantity of Ube3a-ATS vs DMSO (Ube3a-ATS): downregulated

CC(C(=O)Nc1cc(C2CC2)[nH]n1)c1ccc(N2CCCC2)cc1 (racemic) [Compound (±)-4]
Emax (paternal UBE3A-YFP): 65.7 ± 15.4% | EC50 (paternal UBE3A-YFP): 260 ± 100 nM | capability to unsilence paternal Ube3a (analog test) (paternal UBE3A-YFP): could unsilence paternal Ube3a | UBE3A protein levels vs DMSO (UBE3A protein): significantly increased | CC50 at 72 h [1]: 1460 ± 240 nM | relative quantity of Ube3a-ATS vs DMSO (Ube3a-ATS): downregulated

CC(C(=O)Nc1cc(C2CC2)[nH]n1)c1ccc(N2CCC(O)C2=O)cc1 [Compound (S,R)-5]
Emax (paternal UBE3A-YFP): 58.3 ± 9.24% | EC50 (paternal UBE3A-YFP): 5300 ± 370 nM | capability to unsilence paternal Ube3a (analog test) (paternal UBE3A-YFP): could unsilence paternal Ube3a | CC50 at 72 h [1]: 12800 ± 780 nM | relative quantity of Ube3a-ATS vs DMSO (Ube3a-ATS): downregulated
